Measured values reported in publication PMC11129975, “A first-in-human phase I study of TAS-117, an allosteric AKT inhibitor, in patients with advanced solid tumors” (Cancer Chemotherapy and Pharmacology, 2024).

Assay: Phase I safety: adverse events, adverse drug reactions, DLTs in patients with advanced solid tumors
Type: in vivo, human
Excerpt: This was a phase I, open-label, non-randomized, dose-escalating first-in-human study to evaluate the safety, pharmacokinetics, antitumor activity, pharmacodynamics, and pharmacogenomics of TAS-117 in patients with advanced solid tumors. The study had three phases: a dose escalation phase (DEP), a regimen modification phase (RMP), and a safety assessment phase (SAP). The treatment cycle on each regimen lasted 21 days. The DEP used an accelerated titration and 3 + 3 design. TAS-117 was administered orally once daily (QD) on an empty stomach (1 h before or 2 h after a meal). Dosing was determined based on a 4-week repeated oral-dose toxicology study in monkeys (data on file, Taiho Pharmaceutical Co., Ltd.); the highest non-severely toxic dose was 1.2 mg/kg/day, which was converted to 3.84 mg/body/day, or 2.4 mg/m^2. Therefore, the starting dose was determined to be ≤ 2.4 mg/m^2. At dose level 1, TAS-117 was administered at 2 mg QD (Day − 2), and the dose was increased to 4 mg QD after 2 days (Day 1). The RMP was conducted according to a 3 + 3 design. During this phase, the dose regimen was changed from QD administration to intermittent dosing of daily TAS-117 with 4 days on/3 days off. TAS-117 was administered on an empty stomach. Dose-limiting toxicities (DLTs) were evaluated in Cycle 1 of the DEP and RMP. […] The RD and regimen for the SAP were determined based on the safety, pharmacokinetics, pharmacodynamics, and antitumor activity profile determined in the DEP and RMP. During the SAP, the safety and preliminary efficacy profiles of TAS-117 were assessed at the RD and recommended regimen. Three cohorts were included in this assessment. Cohort 1 included patients with endometrial cancer with a PIK3CA mutation; cohort 2 included patients with endometrial cancer with an AKT1 mutation, AKT1 amplification, or AKT2 amplification; and cohort 3 included patients with ovarian clear cell carcinoma.
The primary endpoints were the proportion of patients who experienced DLTs in Cycle 1 of the DEP and RMP and the incidence of adverse events (AEs) and adverse drug reactions (ADRs) in the SAP. AEs and ADRs were coded using the Medical Dictionary for Regulatory Activities (MedDRA; version 24.1) and graded according to the National Cancer Institute Common Terminology Criteria for Adverse Events (CTCAE; version 4.03). Secondary endpoints were pharmacokinetic findings, changes in the ratio of phosphorylated PRAS40 (pPRAS40)/total PRAS40 from baseline, efficacy, and pharmacogenomics findings.

In the case of `C[C@]1(O)C[C@@](N)(c2ccc(-c3nc4n(c3-c3ccccc3)COc3ccncc3-4)cc2)C1` [TAS-117], the “Adverse drug reactions: AST increased” value (SAP n = 43, All grade) is reported as 6 (14.0) n (%), the “Adverse drug reactions: Any events” value (SAP n = 43, All grade) is reported as 43 (100.0) n (%) and the “Adverse drug reactions: Blood AP increased” value (SAP n = 43, All grade) is reported as 5 (11.6) n (%). For the same compound, the “Adverse drug reactions: Decreased appetite” value (SAP n = 43, All grade) was 3 (7.0) n (%), the “Adverse drug reactions: Diarrhea” value (SAP n = 43, All grade) was 5 (11.6) n (%) and the “Adverse drug reactions: Dry skin” value (SAP n = 43, All grade) was 7 (16.3) n (%). For the same compound, the “Adverse drug reactions: GGT increased” value (SAP n = 43, All grade) was 5 (11.6) n (%), the “Adverse drug reactions: GI disorders” value (SAP n = 43, All grade) was 29 (67.4) n (%) and the “Adverse drug reactions: General disorders and administration site conditions” value (SAP n = 43, All grade) was 20 (46.5) n (%). For the same compound, the “Adverse drug reactions: Hyperglycemia” value (SAP n = 43, All grade) was 23 (53.5) n (%), the “Adverse drug reactions: Investigations” value (SAP n = 43, All grade) was 28 (65.1) n (%) and the “Adverse drug reactions: Metabolism and nutrition disorders” value (SAP n = 43, All grade) was 26 (60.5) n (%). For the same compound, the “Adverse drug reactions: Nausea” value (SAP n = 43, All grade) was 12 (27.9) n (%), the “Adverse drug reactions: Neutrophil count decreased” value (SAP n = 43, All grade) was 15 (34.9) n (%) and the “Adverse drug reactions: Pruritus” value (SAP n = 43, All grade) was 8 (18.6) n (%). For the same compound, the “Adverse drug reactions: Pyrexia” value (SAP n = 43, All grade) was 12 (27.9) n (%), the “Adverse drug reactions: Rash maculo-papular” value (SAP n = 43, All grade) was 40 (93.0) n (%) and the “Adverse drug reactions: Skin and SC tissue disorders” value (SAP n = 43, All grade) was 41 (95.3) n (%). The “Adverse drug reactions: Stomatitis” value (SAP n = 43, All grade) was 26 (60.5) n (%), the “Adverse drug reactions: Vomiting” value (SAP n = 43, All grade) was 4 (9.3) n (%) and the “Adverse drug reactions: WBC count decreased” value (SAP n = 43, All grade) was 19 (44.2) n (%). The “Adverse events: ALT increased” value (SAP n = 43, All grade) was 8 (18.6) n (%), the “Adverse events: AST increased” value (SAP n = 43, All grade) was 8 (18.6) n (%) and the “Adverse events: Any events” value (SAP n = 43, All grade) was 43 (100.0) n (%). The “Adverse events: Blood AP increased” value (SAP n = 43, All grade) was 5 (11.6) n (%), the “Adverse events: Decreased appetite” value (SAP n = 43, All grade) was 7 (16.3) n (%) and the “Adverse events: Diarrhea” value (SAP n = 43, All grade) was 9 (20.9) n (%). The “Adverse events: Dry skin” value (SAP n = 43, All grade) was 10 (23.3) n (%), the “Adverse events: GGT increased” value (SAP n = 43, All grade) was 7 (16.3) n (%) and the “Adverse events: GI disorders” value (SAP n = 43, All grade) was 35 (81.4) n (%). The “Adverse events: General disorders and administration site conditions” value (SAP n = 43, All grade) was 25 (58.1) n (%), the “Adverse events: Hyperglycemia” value (SAP n = 43, All grade) was 23 (53.5) n (%) and the “Adverse events: Investigations” value (SAP n = 43, All grade) was 29 (67.4) n (%). For the same compound, the “Adverse events: Metabolism and nutrition disorders” value (SAP n = 43, All grade) was 28 (65.1) n (%), the “Adverse events: Nausea” value (SAP n = 43, All grade) was 15 (34.9) n (%) and the “Adverse events: Neutrophil count decreased” value (SAP n = 43, All grade) was 15 (34.9) n (%). The “Adverse events: Pruritus” value (SAP n = 43, All grade) was 8 (18.6) n (%), the “Adverse events: Pyrexia” value (SAP n = 43, All grade) was 17 (39.5) n (%) and the “Adverse events: Rash maculo-papular” value (SAP n = 43, All grade) was 40 (93.0) n (%). The “Adverse events: Skin and SC tissue disorders” value (SAP n = 43, All grade) was 41 (95.3) n (%), the “Adverse events: Stomatitis” value (SAP n = 43, All grade) was 27 (62.8) n (%) and the “Adverse events: Vomiting” value (SAP n = 43, All grade) was 8 (18.6) n (%). The “Adverse events: WBC count decreased” value (SAP n = 43, All grade) was 19 (44.2) n (%), the “Adverse drug reactions: ALT increased” value (SAP n = 43, ≥ Grade 3) was 2 (4.7) n (%) and the “Adverse drug reactions: AST increased” value (SAP n = 43, ≥ Grade 3) was 0 (0.0) n (%). The “Adverse drug reactions: Any events” value (SAP n = 43, ≥ Grade 3) was 30 (69.8) n (%), the “Adverse drug reactions: Blood AP increased” value (SAP n = 43, ≥ Grade 3) was 0 (0.0) n (%) and the “Adverse drug reactions: Decreased appetite” value (SAP n = 43, ≥ Grade 3) was 0 (0.0) n (%). For the same compound, the “Adverse drug reactions: Diarrhea” value (SAP n = 43, ≥ Grade 3) was 0 (0.0) n (%), the “Adverse drug reactions: Dry skin” value (SAP n = 43, ≥ Grade 3) was 0 (0.0) n (%) and the “Adverse drug reactions: GGT increased” value (SAP n = 43, ≥ Grade 3) was 4 (9.3) n (%). The “Adverse drug reactions: GI disorders” value (SAP n = 43, ≥ Grade 3) was 1 (2.3) n (%), the “Adverse drug reactions: General disorders and administration site conditions” value (SAP n = 43, ≥ Grade 3) was 0 (0.0) n (%) and the “Adverse drug reactions: Hyperglycemia” value (SAP n = 43, ≥ Grade 3) was 7 (16.3) n (%). For the same compound, the “Adverse drug reactions: Investigations” value (SAP n = 43, ≥ Grade 3) was 16 (37.2) n (%), the “Adverse drug reactions: Metabolism and nutrition disorders” value (SAP n = 43, ≥ Grade 3) was 7 (16.3) n (%) and the “Adverse drug reactions: Nausea” value (SAP n = 43, ≥ Grade 3) was 0 (0.0) n (%). The “Adverse drug reactions: Neutrophil count decreased” value (SAP n = 43, ≥ Grade 3) was 9 (20.9) n (%), the “Adverse drug reactions: Pruritus” value (SAP n = 43, ≥ Grade 3) was 0 (0.0) n (%) and the “Adverse drug reactions: Pyrexia” value (SAP n = 43, ≥ Grade 3) was 0 (0.0) n (%). The “Adverse drug reactions: Rash maculo-papular” value (SAP n = 43, ≥ Grade 3) was 20 (46.5) n (%), the “Adverse drug reactions: Skin and SC tissue disorders” value (SAP n = 43, ≥ Grade 3) was 21 (48.8) n (%) and the “Adverse drug reactions: Stomatitis” value (SAP n = 43, ≥ Grade 3) was 1 (2.3) n (%). For the same compound, the “Adverse drug reactions: Vomiting” value (SAP n = 43, ≥ Grade 3) was 0 (0.0) n (%), the “Adverse drug reactions: WBC count decreased” value (SAP n = 43, ≥ Grade 3) was 5 (11.6) n (%) and the “Adverse events: ALT increased” value (SAP n = 43, ≥ Grade 3) was 2 (4.7) n (%). The “Adverse events: AST increased” value (SAP n = 43, ≥ Grade 3) was 0 (0.0) n (%), the “Adverse events: Any events” value (SAP n = 43, ≥ Grade 3) was 34 (79.1) n (%) and the “Adverse events: Blood AP increased” value (SAP n = 43, ≥ Grade 3) was 0 (0.0) n (%). The “Adverse events: Decreased appetite” value (SAP n = 43, ≥ Grade 3) was 1 (2.3) n (%), the “Adverse events: Diarrhea” value (SAP n = 43, ≥ Grade 3) was 0 (0.0) n (%) and the “Adverse events: Dry skin” value (SAP n = 43, ≥ Grade 3) was 0 (0.0) n (%). For the same compound, the “Adverse events: GGT increased” value (SAP n = 43, ≥ Grade 3) was 6 (14.0) n (%), the “Adverse events: GI disorders” value (SAP n = 43, ≥ Grade 3) was 2 (4.7) n (%) and the “Adverse events: General disorders and administration site conditions” value (SAP n = 43, ≥ Grade 3) was 0 (0.0) n (%). For the same compound, the “Adverse events: Hyperglycemia” value (SAP n = 43, ≥ Grade 3) was 7 (16.3) n (%), the “Adverse events: Investigations” value (SAP n = 43, ≥ Grade 3) was 18 (41.9) n (%) and the “Adverse events: Metabolism and nutrition disorders” value (SAP n = 43, ≥ Grade 3) was 9 (20.9) n (%). The “Adverse events: Nausea” value (SAP n = 43, ≥ Grade 3) was 0 (0.0) n (%), the “Adverse events: Neutrophil count decreased” value (SAP n = 43, ≥ Grade 3) was 9 (20.9) n (%) and the “Adverse events: Pruritus” value (SAP n = 43, ≥ Grade 3) was 0 (0.0) n (%). The “Adverse events: Pyrexia” value (SAP n = 43, ≥ Grade 3) was 0 (0.0) n (%), the “Adverse events: Rash maculo-papular” value (SAP n = 43, ≥ Grade 3) was 20 (46.5) n (%) and the “Adverse events: Skin and SC tissue disorders” value (SAP n = 43, ≥ Grade 3) was 21 (48.8) n (%). The “Adverse events: Stomatitis” value (SAP n = 43, ≥ Grade 3) was 1 (2.3) n (%), the “Adverse events: Vomiting” value (SAP n = 43, ≥ Grade 3) was 0 (0.0) n (%) and the “Adverse events: WBC count decreased” value (SAP n = 43, ≥ Grade 3) was 5 (11.6) n (%). The “Death (grade 5 respiratory failure, judged unrelated to TAS-117)” value (SAP, cohort 1) was “One patient”, the “Adverse drug reactions: ALT increased” value (Total N = 65, All grade) was 7 (10.8) n (%) and the “Adverse drug reactions: AST increased” value (Total N = 65, All grade) was 8 (12.3) n (%). For the same compound, the “Adverse drug reactions: Any events” value (Total N = 65, All grade) was 64 (98.5) n (%).
